In patent US6814960B1, “Hydroxystilbene compounds used as microbicidal active substances” (Ciba Specialty Chemicals Corporation, priority 1998, dated 2004):
Where two headings read alike, the source gives them in different places.

Assays:
Format in all cases: cell-based
[1] = tested on: Escherichia coli NCTC 8196; test: MIC in the agar diffusion test; conditions: for MIC: Escherichia coli, read-out: MIC E. coli
From the text: (§1) Determination of the Minimum Inhibiting Concentration (MIC) in the Agar Diffusion Test

[2] = tested on: Candida albicans ATCC 10231; test: MIC in the agar diffusion test; conditions: for MIC: Candida albicans, read-out: MIC C. albicans
From the text: as §1

[3] = tested on: Staphylococcus aureus ATCC 9144; test: MIC in the agar diffusion test; conditions: for MIC: Staphylococcus aureus, read-out: MIC S. aureus
From the text: as §1

[4] = tested on: Aspergillus niger ATCC 6275; test: MIC in the agar diffusion test; conditions: for MIC: Aspergillus niger, ATCC6275, 72 h, read-out: MIC A. niger
From the text: as §1

[5] = tested on: Pseudomonas aeruginosa CIP A-22; test: MIC in the agar diffusion test; conditions: Mueller-Hinton agar, 24 hours at 37° C., solution in EtOH
From the text: as §1

[6] = tested on: Corynebacterium xerosis ATCC 373; test: MIC in the agar diffusion test; conditions: Mueller-Hinton agar, 24 hours at 37° C.; (103) solution in EtOH
From the text: as §1

[7] = tested on: Escherichia coli NCTC 8196; test: MIC value in microtitre plates (optical density); conditions: microtitre plate, CASO bouillon, 48 hours at 37° C., optical density 620 nm, ≦20% growth; some data indicative values
Experimental: (§2) Determination of the Minimum Inhibiting Concentration (MIC Value) in Microtitre Plates
(§3) Casein/soybean flour peptone bouillon for the preparation of the precultures of the test bacteria and yeast.
(§4) Mycological slant agar for the preculture of moulds.
(§5) Examples of Test Organisms
(§6) The test substances are predissolved in dimethyl sulfoxide (DMSO) and tested in a serial dilution of 1:2.
(§7) Bacteria and yeast are cultured overnight in CASO bouillon, the mould on mycological slant agar and rinsed off with 10 ml of 0.85% sodium chloride solution (+0.1% TritonX-100).
(§8) All test organisms are adjusted to an organism count of 1.5×10^6 CFU/ml with 0.85% sodium chloride solution.
(§9) The test substances are prepipetted into microtitre plates in an amount of 8 μl per well.
(§10) Previously diluted organism substances are diluted 1:100 in CASO bouillon (bacteria and yeast) and Sabouraud 2% glucose bouillon (mould) and added to the test substances in an amount of 192 μl per well.
(§11) The test batches are incubated for 48 hours at 37° C. (bacteria and yeast) or for 5 days at 28° C. (mould).
(§12) After incubation, the growth is determined by reference to the turbidity of the test batches (optical density) at 620 nm in a microplate reader.
(§13) The minimum inhibiting concentration (MIC value) is the concentration of substance at which (compared with the growth control) an appreciable inhibition of the growth (≦20% growth) of the test organisms is ascertained.
(§14) One microtiter plate is used for each test organism and substance concentration. All substances tested in duplicate.

[8] = tested on: Candida albicans ATCC 10231; test: MIC value in microtitre plates (optical density); conditions: microtitre plate, CASO bouillon, 48 hours at 37° C., optical density 620 nm, ≦20% growth; some data indicative values
Experimental: as §2, §3, §4, §5, §6, §7, §8, §9, §10, §11, §12, §13, §14

[9] = tested on: Staphylococcus hominis DSM 20328; test: MIC value in microtitre plates (optical density); conditions: microtitre plate, CASO bouillon, 48 hours at 37° C., optical density 620 nm, ≦20% growth; some data indicative values
Experimental: as §2, §3, §4, §5, §6, §7, §8, §9, §10, §11, §12, §13, §14

[10] = tested on: Aspergillus niger ATCC 6275; test: MIC value in microtitre plates (optical density); conditions: microtitre plate, Sabouraud 2% glucose bouillon, 5 days at 28° C., optical density 620 nm, ≦20% growth; some data indicative values
Experimental: as §2, §3, §4, §5, §6, §7, §8, §9, §10, §11, §12, §13, §14

[11] = tested on: Pseudomonas aeruginosa CIP A-22; test: MIC value in microtitre plates (optical density); conditions: microtitre plate, CASO bouillon, 48 hours at 37° C., optical density 620 nm, ≦20% growth; some data indicative values
Experimental: as §2, §3, §4, §5, §6, §7, §8, §9, §10, §11, §12, §13, §14

[12] = Sabouraud 4% glucose agar, 3 days at 28° C., (101) solution in EtOH, others in DMSO
[13] = Mueller-Hinton agar, 24 hours at 37° C., (101), (103) solution in EtOH, others in DMSO

Row | Compound | MIC values E. coli [7] | MIC values C. albicans [8] | MIC values S. heminis [9] | MIC values A. niger [10] | MIC values P. aeruginosa [11] | also measured
1 | Oc1cc(O)cc(C=Cc2ccccc2)c1 [Compound of formula (101), 3,5-dihydroxystilbene] | – | – | – | – | – | MIC ([1]; NCTC8196, Mueller-Hinton agar, 24 hours at 37° C., (101), (103) solution in EtOH, (102) in DMSO): 100 µg/mL; MIC ([2]; ATCC10231, Mueller-Hinton agar, 24 hours at 37° C., (101), (103) solution in EtOH, others in DMSO): 100 µg/mL; MIC ([3]; ATCC9144, Mueller-Hinton agar, 24 hours at 37° C., (101), (103) solution in EtOH, others in DMSO): 100 µg/mL; MIC [4, 12]: 100 µg/mL; MIC ([5]; Pseudomonas aeruginosa, CIPA22, read-out: MIC P. aeruginosa): 100 µg/mL
2 | Oc1ccc(/C=C/c2cc(O)cc(O)c2)cc1 [Compound of formula (103)] | – | – | – | – | – | MIC E. coli ([1]; Mueller-Hinton agar, 24 hours at 37° C., (101), (103) solution in EtOH, (102) in DMSO): 600 ppm; MIC C. albicans [2, 13]: 600 ppm; MIC C. xerosis [6]: 100 ppm; MIC S. aureus [3, 13]: 600 ppm; MIC P. aeruginosa [5]: 600 ppm
3 | Oc1cccc(/C=C/c2ccccc2)c1 [Compound of formula (102), 3-hydroxystilbene] | – | – | – | – | – | MIC ([1]; NCTC8196, 24 h): 100 µg/mL; MIC ([2]; ATCC10231, 24 h): 100 µg/mL; MIC ([3]; ATCC9144, 24 h): 100 µg/mL; MIC [4]: 10 µg/mL
4 | Oc1ccc(/C=C/c2ccc(Cl)cc2)cc1 [Compound of formula (106)] | – | – | – | – | – | MIC S. aureus [3, 13]: 10 ppm; MIC A. niger [4, 12]: 600 ppm
5 | CN(C)c1ccc(/C=C/c2ccccc2)cc1 [Compound of formula (104)] | – | – | – | – | – | MIC C. albicans [2, 13]: 600 ppm; MIC S. aureus [3, 13]: 300 ppm
6 | COc1ccc(/C=C/c2ccccc2O)cc1 [Comp. of formula 137] | 100 ppm | >100 ppm | >100 ppm | >100 ppm | >100 ppm | –
7 | COc1cc(/C=C/c2ccccc2C)cc(O)c1OC [Comp. of formula 175] | 60 ppm | 60 ppm | 60 ppm | 100 ppm | 100 ppm | –
8 | COc1ccc(/C=C/c2cccc3ccccc23)cc1O [Comp. of formula 158] | >100 ppm | >100 ppm | >100 ppm | >100 ppm | >100 ppm | –
9 | Cc1ccccc1/C=C/c1ccccc1O [Comp. of formula 174] | 100 ppm | 60 ppm | 60 ppm | 60 ppm | >100 ppm | –
10 | COc1cc(/C=C/c2ccccc2)cc(O)c1OC [Comp. of formula 114] | 100 ppm | >100 ppm | >100 ppm | 100 ppm | >100 ppm | –
11 | CCOc1cc(/C=C/c2ccccc2)ccc1O [Comp. of formula 110] | >100 ppm | >100 ppm | >100 ppm | >100 ppm | >100 ppm | –
12 | COc1ccc(/C=C/c2cc(O)c(OC)c(OC)c2)cc1 [Comp. of formula 138] | >100 ppm | >100 ppm | >100 ppm | >100 ppm | >100 ppm | –
